Key:
Format in all cases: in vivo, human
[1] = system: pediatric patients with UCDs; test: HPN-100-012 switch-over study: 24-hour blood ammonia on HPN-100 vs NaPBA
Excerpt: HPN-100-012 was an open-label, fixed sequence, switch-over study of the safety, PK and efficacy of HPN-100 compared to NaPBA in patients with UCDs, with a 12-month safety extension part. […] After review of all the safety data by the DSMB, 8 additional subjects were enrolled in the study after the switch-over phase was completed.

pediatric UCD patients = test: Pooled ammonia analyses from short term studies
Procedure: Pooled ammonia analyses from short term studies were also conducted.

[2] = Pharmacokinetics of HPN-100 and NaPBA, study HPN-100-005; conditions: HPN-100-005 (N = 11)
Excerpt: (§1) The pharmacokinetics of the short term studies can be summarized as follows. Mean exposure levels of HPN-100 metabolites PBA, PAA, and PAGN after doses of HPN-100 and NaPBA with meals (TID) in pediatric (29 days to 17 years of age) UCD patients in HPN-100-005 and HPN-100-012 studies are summarized below. The mean exposure to PBA, the parent metabolite, and mean exposure to PAGN, the terminal metabolite, show no systematic variation across age groups, while PAA exposure tended to decrease with increasing age, a finding consistent with those from population PK modeling which indicate that the rate of clearance/metabolism of PAA varies directly with body size. While systemic metabolite exposure, assessed as peak plasma concentration (Cmax) or AUC, is generally similar for HPN-100 and NaPBA, the minimum concentration (Cmin-ss) was higher—and/or percent-fluctuation less—for plasma PAGN, a finding consistent with slower gastrointestinal absorption of PBA when administered orally as HPN-100.

[3] = Pharmacokinetics of HPN-100 and NaPBA, study HPN-100-012; conditions: HPN-100-012 (N = 15)
Excerpt: as §1

Structure (SMILES): O=C([O-])CCCc1ccccc1.[Na+] [NaPBA, sodium phenylbutyrate]
- Mean blood ammonia ([1]; 12-hour time point, HPN-100 Day 10, NaPBA Day 1): 41.03 µmol/L
- Mean blood ammonia ([1]; 24-hour time point, NaPBA Day 1): 34.66 µmol/L
- Mean blood ammonia levels following an overnight fast ([1]; pre-dose and 24 hours post dose): normal
- abnormal ammonia values (pediatric UCD patients): 35%
- Plasma PAA % Fluctuation ([2]; mean (CV %)): 3931 (85.1) %
- Plasma PAA AUC0-24 ([2]; mean (CV %)): 773 (73.3) μg · h/mL
- Plasma PAA CLss/F ([2]; mean (CV %)): 34391 (162.5) mL/min
- Plasma PAA Cmax-ss ([2]; mean (CV %)): 75.1 (64.4) μg/mL
- Plasma PAA Cmin-ss ([2]; mean (CV %)): 0.674 (130.5) μg/mL
- Plasma PAGN % Fluctuation ([2]; mean (CV %)): 1917 (54.8) %
- Plasma PAGN AUC0-24 ([2]; mean (CV %)): 1015 (44.7) μg · h/mL
- Plasma PAGN CLss/F ([2]; mean (CV %)): 19739 (44.3) mL/min
- Plasma PAGN Cmax-ss ([2]; mean (CV %)): 74.8 (37.3) μg/mL
- Plasma PAGN Cmin-ss ([2]; mean (CV %)): 4.6 (66.4) μg/mL
- Plasma PBA % Fluctuation ([2]; mean (CV %)): 1979 (123.7) %
- Plasma PBA AUC0-24 ([2]; mean (CV %)): 236 (105.2) μg · h/mL
- Plasma PBA CLss/F ([2]; mean (CV %)): 145463 (123.4) mL/min
- Plasma PBA Cmax-ss ([2]; mean (CV %)): 37.4 (101.6) μg/mL
- Plasma PBA Cmin-ss ([2]; mean (CV %)): 0.37 (171.3) μg/mL
- U-PAGN Ae ([2]; mean (CV %)): 12512426 (51.3) μg
- U-PAGN Ae0-12 ([2]; mean (CV %)): 7098020 (47.5) μg
- U-PAGN Ae12-24 ([2]; mean (CV %)): 5414406 (71.9) μg
- U-PAGN Fe0-12 ([2]; mean (CV %)): 39.6 (30.0) %
- U-PAGN Fe12-24 ([2]; mean (CV %)): 29.3 (52.8) %
- U-PAGN Fe % dose ([2]; mean (CV %)): 69.0 (23.9) %
- Plasma PAA Tmax-ss ([2]; median): 12.00 h
- Plasma PAGN Tmax-ss ([2]; median): 12.00 h
- Plasma PBA Tmax-ss ([2]; median): 12.00 h
- Plasma PAA % Fluctuation ([3]; mean (CV %)): 1289 (102.8) %
- Plasma PAA AUC0-24 ([3]; mean (CV %)): 1458 (211.3) μg · h/mL
- Plasma PAA CLss/F ([3]; mean (CV %)): 94249 (243.7) mL/min
- Plasma PAA Cmax-ss ([3]; mean (CV %)): 98.0 (152.1) μg/mL
- Plasma PAA Cmin-ss ([3]; mean (CV %)): 49.2 (287.2) μg/mL
- Plasma PAGN % Fluctuation ([3]; mean (CV %)): 1459 (74.1) %
- Plasma PAGN AUC0-24 ([3]; mean (CV %)): 946 (75.5) μg · h/mL
- Plasma PAGN CLss/F ([3]; mean (CV %)): 14360 (93.0) mL/min
- Plasma PAGN Cmax-ss ([3]; mean (CV %)): 74.4 (61.3) μg/mL
- Plasma PAGN Cmin-ss ([3]; mean (CV %)): 17.7 (159.6) μg/mL
- Plasma PBA % Fluctuation ([3]; mean (CV %)): 5102 (75.9) %
- Plasma PBA AUC0-24 ([3]; mean (CV %)): 483 (146.0) μg · h/mL
- Plasma PBA CLss/F ([3]; mean (CV %)): 112093 (136.4) mL/min
- Plasma PBA Cmax-ss ([3]; mean (CV %)): 60.4 (128.3) μg/mL
- Plasma PBA Cmin-ss ([3]; mean (CV %)): 0.993 (227.3) μg/mL
- Plasma PAA Tmax-ss ([3]; median): 8.00 h
- Plasma PAGN Tmax-ss ([3]; median): 8.00 h
- Plasma PBA Tmax-ss ([3]; median): 8.30 h

From patent US10668040B2, “Treatment of urea cycle disorders in neonates and infants” (Horizon Therapeutics, LLC, priority 2017, dated 2020)
